# Experiments:
# [1] = test system: FGF-stimulated HUVEC; experiment: FGF-stimulated HUVEC proliferation assay (BrdU); format: cell-based; settings: Homo sapiens, BrdU labeling, FGF 5 ng per mL, 24 hour exposure, read-out: Antiproliferative Activity FGF-stimulated HUVEC Assay IC50
# Procedure: The antiproliferative activity of test compounds of this invention in cell-based assays was evaluated by BrdU assay using the BrdU kit (Roche Biochemicals 1-647-229). Human umbilical vein endothelial cells (HUVEC, Clonetics CC-2519) were cultured in EGM-2 (Clonetics CC-3162) medium and seeded at 10000 cells per well in a volume of 200 μL of EGM-2 (Clonetics CC-3162) media in a 96-well flat bottom plates (Costar 3595) overnight. After 24 hours of growth at 37° C. with 5% CO2, the incubation media was removed slowly by aspiration, and the content of each well was washed with 300 μL pre-warmed EBM-2 (Clonetics CC-3156) containing 50 μg per mL of gentamycin and 50 ng per mL of amphotercin-B (Clonetics CC-4083). Subsequently, the remaining media was again aspirated and replaced with 160 μL per well of serum starvation media (EBM-2 supplemented with 1% heat inactivated FBS (Clonetics CC-4102), 50 μg per mL gentamycin and 50 ng per mL of amphotercin-B (Clonetics CC-4083), 10 units per mL of Wyeth-Ayerst heparin (NDC0641-0391-25), and 2 mM L-glutamine (GIBCO 25030-081). After serum starving the cells for 24 hours, 20 μL of test compound at 10× test concentration in serum starvation medium with 2.5% DMSO was added to the appropriate wells. The control wells contained 20 μL of serum starvation medium with 2.5% DMSO. Plates were returned to the incubator for 2 hours. After pre-incubating the cells with the test compounds for 2 hours, 20 μL of growth factors at 10X assay concentration diluted in serum starvation media, FGF at 50 ng per mL, or VEGF (R&D systems 293-VE) at 200 ng per mL were added. The final concentration of FGF in the assay was 5 ng per mL and the final concentration of VEGF in the assays was 20 ng per mL. The growth factor free control wells had 20 μL per well of serum starvation media with the same amount of BSA as the wells with growth factors. The plates were returned to the incubator for an additional 22 hours.
# After 24 hour exposure to the test compounds, the cells were labeled with BrdU (Roche Biochemicals 1-647-229), by adding 20 μL per well of BrdU labeling reagent that has been diluted (1:100) in serum starvation medium. The plates were then returned to the incubator for 4 hours. The labeling medium was removed by draining the medium onto paper towels. […] The plates were read at 450 nm with reference wavelength of 650 nm. The percent inhibition for each test compound was calculated by subtracting the absorbency of the blank (no cells) wells from all wells, then subtracting the division of the average absorbency of each test duplicate by the average of the controls from 1. […] The IC50 is determined from the linear regression of a plot of the logarithm of the concentration versus percent inhibition.
# [2] = test system: H460a; experiment: H460a cell-based MTT proliferation assay; settings: 120 h, 5 days post addition of test compound, read-out: Antiproliferative Activity H460a Assay IC90
# Procedure: The H460a cell line was purchased from (ATCC; Rockville, Md.) and was grown in the medium recommended by ATCC. For analysis of the effect of the test compounds on growth of these cells, the cells were plated at 150 cells per well in a 96-well tissue culture plate, and were incubated overnight at 37° C. with 5% CO2. The next day, the test compounds were dissolved in 100% dimethyl sulfoxide (DMSO) to yield a 10 mM stock solution. Each compound was diluted with sterile medium to 1 mM in a sufficient quantity to yield a final concentration of 120 μM. The compounds were then serially diluted in medium with 1.2% DMSO. One-fourth final volume of the diluted compounds was transferred to 96 well plates. Test compounds were assayed in duplicate. […] The plates were returned to the incubator, and 5 days post addition of test compound, were analyzed as described below. […] Absorbencies were read in a microtiter plate reader (Molecular Dynamics) at a wavelength of 570 nm with a 650 nm reference. Percent inhibition was calculated by subtracting the absorbance of the blank (no cell) wells from all wells, then subtracting the division of the average absorbance of each test duplicate by the average of the controls from 1.00. Inhibitory concentrations (IC50) were determined from the linear regression of a plot of the logarithm of the concentration versus the percent inhibition.
# [3] = molecular target: T1, Cyclin E/CDK2 (Homo sapiens, UniProt P24941); experiment: CDK2 Flash Plate Assay (Rb phosphorylation, 33P-ATP); format: biochemical
# T1 construct: made in house; host or cells: insect cells
# Procedure: To determine inhibition of CDK2 activity, purified recombinant retinoblastoma (Rb) protein was coated on 96 well FlashPlates (New England Nuclear, Boston, Mass.). […] Recombinant active human Cyclin E/CDK2 complexes were partially purified from extracts of insect cells. […] Plates were incubated for 25 minutes at room temperature with shaking, then washed and counted in the Topcount scintillation counter (Packard Instrument Co., Downers Grove, Ill.). Dilutions of test compounds were tested in duplicate in each assay. The percent inhibition of Rb phosphorylation, which is a measure of the inhibition of CDK2 activity, was determined according to the following formula:
# [formula] where “test compound” refers to the average counts per minute of the test duplicates, “nonspecific” refers to the average counts per minute when no Cyclin E/CDK2 was added, and “total” refers to the average counts per minute when no compound was added.
# [4] = test system: SW480; experiment: SW480 (colon) cell-based MTT proliferation assay; settings: Homo sapiens, SW480, 144 h, 6 days post addition of the test compound, read-out: IC50 for inhibition in the SW480 (colon) based assay
# Procedure: (§1) The estrogen receptor negative epithelial breast carcinoma line (MDA-MB-435) was purchased from American Type Cell Culture Collection (ATCC; Rockville, Md.) and was grown in the medium recommended by ATCC. For analysis of the effect of the test compounds on growth of these cells, the cells were plated at 2000 cells per well in a 96-well tissue culture plate, and were incubated overnight at 37° C. with 5% CO2. The next day, the test compounds were dissolved in 100% dimethyl sulfoxide (DMSO) to yield a 10 mM stock solution. Each compound was diluted with sterile medium to 1 mM in a sufficient quantity to yield a final concentration of 120 μM. The compounds were then serially diluted in medium with 1.2% DMSO. […] The plates were returned to the incubator, and 5 days post addition of test compound, were analyzed as described below.
# (§2) 3-(4,5-Dimethylthiazole-2-yl)-2,5-diphenyl-2H-tetrazolium bromide (thiazolyl blue; MTT) was added to each well to yield a final concentration of 1 mg/mL. […] Absorbencies were read in a microtiter plate reader (Molecular Dynamics) at a wavelength of 570 nm with a 650 nm reference. Percent inhibition was calculated by subtracting the absorbance of the blank (no cell) wells from all wells, then subtracting the division of the average absorbance of each test duplicate by the average of the controls from 1.00. […]
# [5] = test system: MDA-MB-435; experiment: MDA-MB-435 cell-based MTT proliferation assay; settings: Homo sapiens, MDA-MB-435, 120 h, 5 days post addition of test compound, read-out: IC50 for inhibition in the MDA-MB-435 cell-based assay
# Procedure: as §1, §2
SMILES,IC50 [1] [nM],IC90 [2] [nM],IC50 [3] [nM],IC50 [4] [nM],IC50 [5] [nM]
"COc1cc2c(cc1C#N)C(c1ccccc1Cl)=Nc1c(n[nH]c1C)N2 [IVb, 5-(2-chlorophenyl)-7-cyano-1,2-dihydro-8-methoxy-3-methyl-pyrazolo[3,4-b][1,4]benzodiazepine]",5,118,184,–,–
"Cc1cc2c(cc1C)C(c1ccccc1Cl)=NCC(=O)N2 [Iw, 5-(2-chlorophenyl)-1,3-dihydro-7,8-dimethyl-2H-1,4-benzodiazepin-2-one]",–,–,–,950,950

# Source: patent publication US7524840B2, “7,8-disubstituted pyrazolobenzodiazepines” (Hoffmann-La Roche Inc., priority 2004, dated 2009)
